In patent EP0024842A1, “Methyl (5-(2-thienylhydroxymethyl)-1H-benzimidazol-2-yl) carbamate, process for its preparation and compositions containing it” (priority 1979, dated 1981):

Key:
[1] = tested on: pregnant Sprague-Dawley rats; experiment: Embryotoxic activity in pregnant rats (antimitotic test according to Delatour and Richard), dose series; settings: orally; for Embryo-toxicity %: daily from the 8th to the 15th day of gestation; for # Fetus: 8th to 15th day of gestation
rats = experiment: Embryotoxic effect in rats, 'another test' at equimolar doses; type: in vivo, rat

Compound	Embryo-toxicity % ([1]; 3.03 mg/kg/day) [%]	Embryo-toxicity % ([1]; 5.05 mg/kg/day) [%]	% (embryotoxic effect) (rats; Oral Dose Per Day 5.05 mg/kg) [%]	# Fetus ([1]; 7.5 mg/kg/day, 40 implantations)	Embryo-toxicity % ([1]; 7.5 mg/kg/day) [%]	# Fetus ([1]; 15 mg/kg/day, 30 implantations)	Embryo-toxicity % ([1]; 15 mg/kg/day) [%]	# Fetus ([1]; 30 mg/kg/day, 28 implantations)	Embryo-toxicity % ([1]; 30 mg/kg/day) [%]	% (embryotoxic effect) (rats; Oral Dose Per Day 5.02 mg/kg) [%]	Foet./ Implant (rats; Oral Dose Per Day 5.02 mg/kg)
COC(=O)Nc1nc2ccc(C(O)c3cccs3)cc2[nH]1 (racemic) [I, methyl [5-(2-thienylhydroxymethyl)-lH-benzimidazol-2-yl]-carbamate]	12.06	100	100	–	–	–	–	–	–	–	–
COC(=O)Nc1nc2ccc(C(=O)c3cccs3)cc2[nH]1 [II, Methyl 5-[(2-thenoyl)-lH-benzimidazol-2-yl]-carbamate]	–	–	–	0	100	0	100	0	100	3.5	55/57
